This note sets out measurements from ChEMBL document CHEMBL1201862, “PubChem BioAssay data set” (2004).

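All cell lines were grown in 96-well plates and treated with compound for 48 hours. At the GI50, growth is halved.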 The source made the active and inactive calls. No stated cut-off is given here; in the data, active = GI50 up to about 1.1 µM and inactive = higher.

Some test systems named below: Hs-578T; M14; SNB-19; SK-MEL-5; HL-60; SF-268; UO-31; OVCAR-8; SF-539; A498; HT-29; DU-145; COLO 205; OVCAR-3; UACC-62; SK-OV-3; MDA-N; PC-3; SR; NCI-H522.
Test in all cases: NCI-60 cell line screen, 48 h

In the case of `COc1ccc2c(c1)[nH]c1c3ccc(OC)cc3oc(=O)c21`, the GI50 with Hs-578T was 55.2 µM (inactive); in the assay on M14, > 100 µM (inactive); with SNB-19, > 100 µM (inactive); in the assay on SK-MEL-5, > 100 µM (inactive); in the assay on HL-60, 0.867 µM (active); with SF-268, > 100 µM (inactive). In addition, the GI50 in the assay with UO-31, in the assay with OVCAR-8, with SF-539, in the assay with A498, in the assay with HT-29 and in the assay on DU-145 was > 100 µM (inactive) each time. Also, the GI50 with COLO 205 was > 100 µM (inactive); in the assay with OVCAR-3, > 100 µM (inactive); in the assay on UACC-62 it was > 100 µM (inactive); with SK-OV-3, > 100 µM (inactive); in the assay on MDA-N it was 0.9 µM (active); in the assay on PC-3, > 100 µM (inactive).
For the compound `CC(/C=N/N=C1NCCCCN1)=N\N=C1NCCCCN1`, the GI50 is > 100 µM (inactive) in the assay with Hs-578T; 18.2 µM (inactive) with M14; > 100 µM (inactive) in the assay on SNB-19; 49.2 µM (inactive) in the assay on SK-MEL-5; > 100 µM (inactive) with SF-268; > 100 µM (inactive) in the assay with UO-31. Also, the GI50 is 73.3 µM (inactive) in the assay on SR; > 100 µM (inactive) in the assay on OVCAR-8; > 100 µM (inactive) with SF-539; 84.1 µM (inactive) with HT-29; 22.3 µM (inactive) in the assay with COLO 205; > 100 µM (inactive) in the assay with OVCAR-3. For the same compound, the GI50 in the assay with UACC-62 is > 100 µM (inactive); in the assay on SK-OV-3 it was > 100 µM (inactive); in the assay on MDA-N, 52.2 µM (inactive); in the assay on NCI-H522, > 100 µM (inactive); in the assay on PC-3, 87.7 µM (inactive).
`NS(=O)(=O)c1nc(S(=O)(=O)O)c2[nH]cnc2n1`: the GI50 with Hs-578T, with M14, in the assay on SNB-19, in the assay on SK-MEL-5, in the assay on SF-268 and with UO-31 was > 100 µM (inactive) throughout. The GI50 in the assay with SR, in the assay with OVCAR-8, with SF-539, in the assay on A498, in the assay on HT-29 and in the assay with COLO 205 was > 100 µM (inactive) in each case. For the same compound, the GI50 in the assay on OVCAR-3, with UACC-62, in the assay with SK-OV-3, in the assay on MDA-N, in the assay on NCI-H522 and with PC-3 was > 100 µM (inactive) in each case.
As for `COc1cc2c(cc1OCCCOc1cc3c(cc1OC)C(=O)N1CCC[C@H]1CN3)N=C[C@@H]1CCCN1C2=O`, the GI50 is 0.267 µM (active) with Hs-578T; 0.0753 µM (active) in the assay on M14; 0.0869 µM (active) in the assay on SNB-19; 0.126 µM (active) in the assay with SK-MEL-5; 0.0291 µM (active) with HL-60; 0.0234 µM (active) in the assay on SF-268. Moreover, the GI50 was 2.17 µM (inactive) with UO-31; < 0.01 µM (active) with SR; 0.232 µM (active) in the assay with OVCAR-8; 0.024 µM (active) in the assay on SF-539; 0.244 µM (active) with HT-29; 0.357 µM (active) in the assay on DU-145. Besides, the GI50 was 0.108 µM (active) with COLO 205; 0.0929 µM (active) in the assay on OVCAR-3; 0.1 µM (active) in the assay on UACC-62; 0.54 µM (active) in the assay on SK-OV-3; < 0.0127 µM (active) in the assay on NCI-H522; 0.279 µM (active) in the assay with PC-3.
Regarding `CCOC(=O)CCC(NC(=O)OCc1ccccc1)C(=O)NC(CCC(=O)OCC)C(=O)NC(CCC(=O)OCC)C(=O)NNC(=O)OC(C)(C)C` (centres undefined), the GI50 in the assay with Hs-578T, in the assay on M14, in the assay with SNB-19, with SK-MEL-5, in the assay with HL-60 and in the assay with UO-31 was > 100 µM (inactive) throughout. Moreover, the GI50 in the assay with SR, in the assay on OVCAR-8, with A498, in the assay on HT-29, in the assay on COLO 205 and in the assay with UACC-62 was > 100 µM (inactive) in each case. Also, the GI50 in the assay with MDA-N and in the assay on PC-3 was > 100 µM (inactive) in each case.
Turning to `COc1ccc2c(c1)CCN1CCCc3ccc(OC)cc3C21` (centres undefined), the GI50 in the assay with Hs-578T is 48.1 µM (inactive); with M14 it was 24.2 µM (inactive); in the assay with SNB-19 it was > 100 µM (inactive); in the assay on SK-MEL-5 it was 39.6 µM (inactive); in the assay with SF-268, 82.6 µM (inactive); in the assay with UO-31 it was 22.5 µM (inactive). In addition, the GI50 in the assay with SR is 41.5 µM (inactive); in the assay on OVCAR-8 it was > 100 µM (inactive); with SF-539 it was 50.4 µM (inactive); in the assay on A498 it was 84.5 µM (inactive); in the assay on HT-29, 31.7 µM (inactive); in the assay with DU-145, > 100 µM (inactive). Besides, the GI50 in the assay with COLO 205 was 44.4 µM (inactive); in the assay on OVCAR-3 it was 92 µM (inactive); with UACC-62, 57.3 µM (inactive); with SK-OV-3 it was 77.4 µM (inactive); in the assay with NCI-H522 it was 32.3 µM (inactive); in the assay with PC-3, 28.5 µM (inactive).
In the case of `COC(=O)C1=C(C(=O)Nc2cccnc2Cl)N(c2ccc(OC)cc2[N+](=O)[O-])C(c2ccc(C)cc2)=CC1c1ccc(OC)cc1OC` (centres undefined), the GI50 in the assay on Hs-578T was 25.3 µM (inactive); with M14, 13.7 µM (inactive); in the assay with SNB-19 it was 32.1 µM (inactive); in the assay with SK-MEL-5, 10 µM (inactive); in the assay with HL-60, 4.61 µM (inactive); with SF-268 it was 24.6 µM (inactive). Moreover, the GI50 in the assay with UO-31 was 12.4 µM (inactive); in the assay with SR, 2.85 µM (inactive); with OVCAR-8 it was 8.79 µM (inactive); in the assay with SF-539, 4.76 µM (inactive); in the assay on A498, 16.7 µM (inactive); with HT-29 it was 3.89 µM (inactive). Also, the GI50 in the assay with DU-145 was 23 µM (inactive); in the assay with COLO 205, 15.5 µM (inactive); in the assay on OVCAR-3, 8.57 µM (inactive); in the assay with UACC-62, 24.3 µM (inactive); with SK-OV-3, 23.7 µM (inactive); in the assay with NCI-H522 it was 2.59 µM (inactive). For the same compound, the GI50 in the assay with PC-3 was 27.5 µM (inactive).
In the case of `CN(C)C(=S)S` [SODIUM DIMETHYLCARBAMODITHIOATE], the GI50 in the assay with Hs-578T is > 100 µM (inactive); with M14, > 100 µM (inactive); in the assay on SNB-19, > 100 µM (inactive); in the assay with SK-MEL-5, 4.14 µM (inactive); in the assay with HL-60 it was 1.33 µM (inactive); in the assay with SF-268 it was > 100 µM (inactive). Also, the GI50 in the assay with UO-31 is 56.4 µM (inactive); in the assay on OVCAR-8, > 52.5 µM (inactive); with SF-539, > 100 µM (inactive); in the assay on A498, > 100 µM (inactive); in the assay on HT-29, 11.5 µM (inactive); with DU-145 it was > 95.7 µM (inactive). The GI50 in the assay on COLO 205 was 27.9 µM (inactive); in the assay with OVCAR-3 it was 0.305 µM (active); in the assay on UACC-62 it was > 100 µM (inactive); in the assay with SK-OV-3 it was > 100 µM (inactive); in the assay on NCI-H522, 0.194 µM (active); in the assay on PC-3 it was 3.37 µM (inactive).
Take `CN(C)/C=N/S(=O)(=O)c1nn2c(C=O)c(-c3ccc(-c4ccccc4)cc3)nc2s1`: the GI50 with Hs-578T is 3.09 µM (inactive); with M14 it was 0.904 µM (active); with SNB-19, 11.9 µM (inactive); in the assay with SK-MEL-5 it was 1.61 µM (inactive); with HL-60, 0.141 µM (active); in the assay on SF-268, 2.1 µM (inactive). Besides, the GI50 in the assay on UO-31 was 1.4 µM (inactive); with SR, 0.49 µM (active); in the assay with OVCAR-8, 5.28 µM (inactive); with SF-539, 2.54 µM (inactive); in the assay with A498, 21.3 µM (inactive); with HT-29 it was 0.347 µM (active). The GI50 with DU-145 was 2.4 µM (inactive); with COLO 205, 2.56 µM (inactive); in the assay on OVCAR-3, 1.92 µM (inactive); in the assay on UACC-62, 2.34 µM (inactive); in the assay with SK-OV-3, 15.1 µM (inactive); in the assay on NCI-H522 it was 0.385 µM (active). Also, the GI50 with PC-3 was 2 µM (inactive).
As to `CC(Nc1ccc(Cl)cc1)c1ccncc1` (centres undefined), the GI50 in the assay on Hs-578T is > 100 µM (inactive); in the assay on M14 it was > 100 µM (inactive); in the assay with SNB-19, > 100 µM (inactive); with SK-MEL-5, 36.6 µM (inactive); in the assay with SF-268 it was 79.6 µM (inactive); in the assay on UO-31, 63.1 µM (inactive). In addition, the GI50 with OVCAR-8 is > 100 µM (inactive); with SF-539, > 100 µM (inactive); in the assay on A498, 81.7 µM (inactive); in the assay with HT-29, 89.5 µM (inactive); with DU-145 it was 74.6 µM (inactive); in the assay with COLO 205, > 100 µM (inactive). Further, the GI50 was > 100 µM (inactive) in the assay on OVCAR-3; 0.0315 µM (active) in the assay on SK-OV-3; > 100 µM (inactive) in the assay with MDA-N; 69.5 µM (inactive) with NCI-H522; 64.1 µM (inactive) in the assay with PC-3.
In the case of `N#Cc1c(N)[nH]c2ccc(Sc3ccccc3)cc12`, the GI50 with Hs-578T is 0.449 µM (active); in the assay on M14, 0.0828 µM (active); in the assay on SNB-19 it was 0.46 µM (active); with SK-MEL-5 it was 0.145 µM (active); with HL-60, 0.0333 µM (active); in the assay with SF-268 it was 0.248 µM (active). Further, the GI50 is 0.236 µM (active) in the assay on UO-31; 0.358 µM (active) with OVCAR-8; 0.234 µM (active) in the assay on SF-539; 0.196 µM (active) in the assay with A498; 0.21 µM (active) in the assay on HT-29; 0.721 µM (active) in the assay on DU-145. In addition, the GI50 with COLO 205 was 0.323 µM (active); with OVCAR-3, 0.215 µM (active); in the assay with UACC-62, 0.133 µM (active); with SK-OV-3, 0.53 µM (active); in the assay with NCI-H522 it was 0.112 µM (active); in the assay with PC-3, 0.275 µM (active).
